Reference: ChEMBL document CHEMBL4229536, “In vitro and in vivo pharmacokinetic and pharmacodynamic study of MBRI-001, a deuterium-substituted plinabulin derivative as a potent anti-cancer agent” (Bioorg Med Chem, 2018)
pIC50: −log10 of the molar value.

Legend:
[1] = Stability in rat plasma at 1 uM after 90 mins by LC-MS/MS analysis; type: ADME, cell-free; settings: read-out: Stability
[2] = Stability in rat plasma at 1 uM after 5 mins by LC-MS/MS analysis; type: ADME, cell-free; settings: read-out: Stability
[3] = Stability in rat liver microsomes at 50 uM after 120 mins in presence of NADPH by LC-MS/MS analysis; type: ADME, microsome; settings: read-out: Stability
[4] = Stability in rat liver microsomes at 50 uM after 90 mins in presence of NADPH by LC-MS/MS analysis; type: ADME, microsome; settings: read-out: Stability
[5] = Stability in rat liver microsomes at 50 uM after 150 mins in presence of NADPH by LC-MS/MS analysis; type: ADME, microsome; settings: read-out: Stability
Cytochrome P450 2D6 = Cytochrome P450 2D6 (Homo sapiens, UniProt P10635); assay: Inhibition of CYP2D6 in human liver microsomes preincubated for 10 mins followed by NADPH addition measured after 10 mins by LC-MS/MS analysis; type: ADME
[6] = Clearance in rat liver microsomes at 50 uM in presence of NADPH by LC-MS/MS analysis; type: ADME, microsome; settings: read-out: CLH
Cytochrome P450 3A4 = Cytochrome P450 3A4 (Homo sapiens, UniProt P08684); assay: Inhibition of CYP3A4 in human liver microsomes preincubated for 10 mins followed by NADPH addition measured after 10 mins by LC-MS/MS analysis; type: ADME
[7] = Stability in rat plasma at 1 uM after 120 mins by LC-MS/MS analysis; type: ADME, cell-free; settings: read-out: Stability
[8] = Stability in rat liver microsomes at 50 uM after 10 mins in presence of NADPH by LC-MS/MS analysis; type: ADME, microsome; settings: microsomes, 10 min, 50 µM
[9] = Stability in rat liver microsomes at 50 uM after 210 mins in presence of NADPH by LC-MS/MS analysis; type: ADME, microsome; settings: microsomes, 3.5 h, 50 µM
[10] = Protein binding in Beagle dog plasma at 2 uM after 4 hrs by LC-MS/MS analysis; type: ADME, cell-free, Canis lupus familiaris; settings: read-out: PPB (converted)
[11] = Stability in rat plasma at 1 uM after 20 mins by LC-MS/MS analysis; type: ADME, cell-free; settings: read-out: Stability
[12] = Stability in rat liver microsomes at 50 uM after 40 mins in presence of NADPH by LC-MS/MS analysis; type: ADME, microsome; settings: read-out: Stability
Cytochrome P450 2C9 = Cytochrome P450 2C9 (Homo sapiens, UniProt P11712); assay: Inhibition of CYP2C9 in human liver microsomes preincubated for 10 mins followed by NADPH addition measured after 10 mins by LC-MS/MS analysis; type: ADME
[13] = Protein binding in Sprague-Dawley rat plasma at 2 uM after 4 hrs by LC-MS/MS analysis; type: ADME, cell-free; settings: read-out: PPB (converted)
[14] = Protein binding in human plasma at 2 uM after 4 hrs by LC-MS/MS analysis; type: ADME, cell-free; settings: read-out: PPB (converted)
[15] = Stability in rat plasma at 1 uM after 60 mins by LC-MS/MS analysis; type: ADME, cell-free; settings: read-out: Stability
Cytochrome P450 2C19 = Cytochrome P450 2C19 (Homo sapiens, UniProt P33261); assay: Inhibition of CYP2C19 in human liver microsomes preincubated for 10 mins followed by NADPH addition measured after 10 mins by LC-MS/MS analysis; type: ADME
[16] = Stability in rat plasma at 1 uM after 40 mins by LC-MS/MS analysis; type: ADME, cell-free; settings: read-out: Stability
Cytochrome P450 1A2 = target: T1, Cytochrome P450 1A2 (Homo sapiens, UniProt P05177); assay: Inhibition of CYP1A2 in human liver microsomes preincubated for 10 mins followed by NADPH addition measured after 10 mins by LC-MS/MS analysis; type: ADME
T1 sequence (P05177 whole entry): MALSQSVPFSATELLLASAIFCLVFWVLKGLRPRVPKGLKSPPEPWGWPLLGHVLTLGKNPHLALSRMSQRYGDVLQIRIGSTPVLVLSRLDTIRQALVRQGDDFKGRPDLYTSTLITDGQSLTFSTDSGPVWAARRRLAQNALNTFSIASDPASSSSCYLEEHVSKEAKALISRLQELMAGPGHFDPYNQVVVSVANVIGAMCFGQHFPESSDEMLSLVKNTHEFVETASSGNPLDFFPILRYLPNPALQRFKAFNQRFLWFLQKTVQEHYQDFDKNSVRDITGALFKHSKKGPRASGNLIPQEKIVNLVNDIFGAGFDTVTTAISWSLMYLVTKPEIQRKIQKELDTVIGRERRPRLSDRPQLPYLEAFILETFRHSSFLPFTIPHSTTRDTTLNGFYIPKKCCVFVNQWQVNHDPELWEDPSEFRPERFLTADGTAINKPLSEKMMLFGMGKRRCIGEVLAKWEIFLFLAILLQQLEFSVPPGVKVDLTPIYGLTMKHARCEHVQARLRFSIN

[17] = Stability in rat liver microsomes at 50 uM after 270 mins in presence of NADPH by LC-MS/MS analysis; type: ADME, microsome; settings: 4.5 h
[18] = Stability in rat liver microsomes at 50 uM after 5 mins in presence of NADPH by LC-MS/MS analysis; type: ADME, microsome; settings: microsomes, 5 min, 50 µM
[19] = Stability in rat plasma at 1 uM after 10 mins by LC-MS/MS analysis; type: ADME, cell-free; settings: read-out: Stability
[20] = Stability in rat liver microsomes at 50 uM after 60 mins in presence of NADPH by LC-MS/MS analysis; type: ADME, microsome; settings: read-out: Stability
[21] = Stability in rat liver microsomes at 50 uM after 20 mins in presence of NADPH by LC-MS/MS analysis; type: ADME, microsome; settings: read-out: Stability
[22] = Half life in rat liver microsomes at 50 uM in presence of NADPH by LC-MS/MS analysis; type: ADME, microsome
Mus musculus [23] = assay: Toxicity in nude mouse xenografted with human NCI-H460 cells assessed as death at 25 to 100 mg/kg, po qd for 14 consecutive days; type: organism-based; settings: in vivo
Mus musculus [24] = assay: Toxicity in Balb/c mouse assessed as mortality at 20 to 40 mg/kg, iv administered three times in a day every 2 days for 15 consecutive days; type: organism-based; settings: in vivo, 48 h

Cytochrome P450 3A4, sequence (P08684 whole entry): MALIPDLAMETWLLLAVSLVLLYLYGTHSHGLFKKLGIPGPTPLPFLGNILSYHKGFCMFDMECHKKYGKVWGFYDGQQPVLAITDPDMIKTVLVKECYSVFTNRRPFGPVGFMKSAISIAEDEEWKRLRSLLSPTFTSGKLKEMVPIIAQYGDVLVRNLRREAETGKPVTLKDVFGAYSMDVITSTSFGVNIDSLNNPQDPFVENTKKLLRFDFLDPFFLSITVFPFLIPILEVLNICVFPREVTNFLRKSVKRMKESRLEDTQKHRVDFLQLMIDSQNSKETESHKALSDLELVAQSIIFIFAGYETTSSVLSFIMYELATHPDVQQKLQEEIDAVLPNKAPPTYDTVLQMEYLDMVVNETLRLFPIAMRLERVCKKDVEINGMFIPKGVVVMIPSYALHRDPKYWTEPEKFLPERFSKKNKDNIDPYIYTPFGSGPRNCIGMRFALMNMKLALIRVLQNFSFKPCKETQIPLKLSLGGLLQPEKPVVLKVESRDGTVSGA
Cytochrome P450 2D6, sequence (P10635 whole entry): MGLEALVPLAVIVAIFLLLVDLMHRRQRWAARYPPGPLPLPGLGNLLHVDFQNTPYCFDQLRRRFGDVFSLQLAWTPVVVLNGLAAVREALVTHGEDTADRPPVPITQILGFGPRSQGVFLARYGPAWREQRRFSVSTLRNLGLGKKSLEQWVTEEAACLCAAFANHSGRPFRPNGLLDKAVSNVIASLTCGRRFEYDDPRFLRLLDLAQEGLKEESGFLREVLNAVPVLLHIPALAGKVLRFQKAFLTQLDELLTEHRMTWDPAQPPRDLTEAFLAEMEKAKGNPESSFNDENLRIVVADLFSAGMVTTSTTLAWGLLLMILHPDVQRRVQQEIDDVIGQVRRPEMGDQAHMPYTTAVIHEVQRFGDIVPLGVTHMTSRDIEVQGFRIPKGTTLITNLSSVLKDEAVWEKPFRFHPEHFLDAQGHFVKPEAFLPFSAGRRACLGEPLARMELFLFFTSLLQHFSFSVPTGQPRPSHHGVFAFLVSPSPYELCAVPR
Cytochrome P450 2C19, sequence (P33261 whole entry): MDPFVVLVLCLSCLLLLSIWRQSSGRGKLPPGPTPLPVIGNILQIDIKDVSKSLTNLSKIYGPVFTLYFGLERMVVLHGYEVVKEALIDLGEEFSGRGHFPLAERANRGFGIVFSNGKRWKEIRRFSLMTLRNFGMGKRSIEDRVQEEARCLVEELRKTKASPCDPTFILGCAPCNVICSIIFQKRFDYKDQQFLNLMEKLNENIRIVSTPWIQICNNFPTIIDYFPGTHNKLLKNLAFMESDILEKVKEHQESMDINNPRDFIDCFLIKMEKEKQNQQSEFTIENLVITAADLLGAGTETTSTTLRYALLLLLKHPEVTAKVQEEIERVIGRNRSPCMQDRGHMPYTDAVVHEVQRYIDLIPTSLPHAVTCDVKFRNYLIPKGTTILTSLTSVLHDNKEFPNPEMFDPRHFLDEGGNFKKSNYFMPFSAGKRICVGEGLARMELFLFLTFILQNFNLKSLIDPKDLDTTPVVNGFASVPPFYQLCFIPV
Cytochrome P450 2C9, sequence (P11712 whole entry): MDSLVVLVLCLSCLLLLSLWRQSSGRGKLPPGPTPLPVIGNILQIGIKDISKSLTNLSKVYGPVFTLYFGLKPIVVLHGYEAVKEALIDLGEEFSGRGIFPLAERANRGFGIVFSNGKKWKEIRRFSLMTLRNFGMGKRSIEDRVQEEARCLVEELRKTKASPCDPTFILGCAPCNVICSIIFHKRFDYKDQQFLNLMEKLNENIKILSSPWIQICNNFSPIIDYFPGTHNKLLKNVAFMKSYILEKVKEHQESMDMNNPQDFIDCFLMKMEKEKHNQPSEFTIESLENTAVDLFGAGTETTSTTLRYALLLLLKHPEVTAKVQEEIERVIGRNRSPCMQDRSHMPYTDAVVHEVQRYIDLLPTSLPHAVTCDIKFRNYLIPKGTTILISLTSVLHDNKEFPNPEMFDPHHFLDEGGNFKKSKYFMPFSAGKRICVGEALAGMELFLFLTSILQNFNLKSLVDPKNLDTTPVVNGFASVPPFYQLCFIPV

With `CC(C)(C)c1[nH]cnc1/C=c1\[nH]c(=O)/c(=C/c2ccccc2)[nH]c1=O` [PLINABULIN] the remaining at 1.5 h, 1 µM [1] was 110%, the remaining at 5 min, 1 µM [2] was 95.5% and the remaining at 2 h, 50 µM [3] was 29.9%. For the same molecule, the remaining at 1.5 h, 50 µM [4] was 41.1%, the remaining at 2.5 h, 50 µM [5] was 29.9% and the pIC50 (Cytochrome P450 2D6) was under 4.30. It also gave a microsomal CLint at 50 µM [6] of 23.4 µL/min/mg, a pIC50 (Cytochrome P450 3A4) of under 4.30 and a remaining at 2 h, 1 µM [7] of 109%. For the same molecule, the Stability [8] was 65.58%, the Stability [9] was 29.64% and the fraction unbound at 4 h, 2 µM [10] was 0.028. The remaining at 20 min, 1 µM [11] was 98.2%, the remaining at 40 min, 50 µM [12] was 56.6% and the pIC50 (Cytochrome P450 2C9) was 6.28. The fraction unbound at 4 h, 2 µM [13] was 0.039, the fraction unbound at 4 h, 2 µM [14] was 0.018 and the remaining at 1 h, 1 µM [15] was 103%. The pIC50 (Cytochrome P450 2C19) was 5.37, the remaining at 40 min, 1 µM [16] was 99% and the pIC50 (Cytochrome P450 1A2) was 5.91. For the same molecule, the Stability [17] was 34.94%, the Stability [18] was 77.21% and the remaining at 10 min, 1 µM [19] was 97.7%. It also gave a remaining at 1 h, 50 µM [20] of 44.8%, a remaining at 20 min, 50 µM [21] of 63.5% and a t1/2 [22] of 59.34 min.

For `COc1cc2ncnc(Nc3ccc(F)c(Cl)c3)c2cc1OCCCN1CCOCC1` [GEFITINIB], the Activity (Mus musculus [23]) was “Non-Toxic”.

With `Nc1ccn([C@@H]2O[C@H](CO)[C@@H](O)C2(F)F)c(=O)n1` [GEMCITABINE] the Activity (Mus musculus [24]) was “Non-Toxic”.
